From patent EP2812315B1, “PYRROLIC DERIVATIVES, PROCESSES FOR PREPARING THE SAME AND THEIR USES AS A DRUG” (Universite Joseph Fourier, priority 2012, dated 2013)
In brackets after ≈: the same amount, converted by molar mass. Where two headings read alike, the source gives them in different places.

Experiments:
Type in all cases: cell-based
[1] = system: Acinetobacter baumanii ATCC 19606; test: MIC determination, microdilution method (CLSI M07-A8); settings: Acinetobacter baumannii
Description: (§1) The microdilution method recommended by the Clinical and Laboratory Standard Institute [M07-A8, Vol.29, N°2] was used. The activity of pyrrolic compounds was tested against 29 bacterial strains belonging to 17 different species and 12 different genera (Staphylococcus, Streptococcus, Enterococcus, […], Bacillus, Haetttophilus, Escherichia, Klebsiella, Enterobacter, Serratia, Pseudomonas, and Acinetobacter). Bacterial inocula were prepared in Mueller Hinton broth (MH2, bioMérieux, Marcy L'Etoile, France), supplemented with 10% sheep blood for fastidious species (i.e., Streptococcus pneumoniae and Haemophilus influenzae). They were dispensed in 96 well microtiter plates (5 x 10^5 CFU/mL of final inoculum). Pyrrolic compounds were added to the wells as to obtain two-fold serial concentrations (0.25-64 mg/L). Plates were incubated at 37°C, in 5% CO2 enriched atmosphere for fastidious species only. MICs were read after 18 hours incubation of cultures, and corresponded to the minimum pyrrolic compound concentration that allowed complete visual growth inhibition of bacteria. Drug-free cultures served as growth controls. Cultures receiving gentamicine, ciprofloxacine or cefotaxime served as positive controls.

[2] = system: Streptococcus pyogenes (group A) CIP 104226; test: as above; settings: CIP104226, 18 hours incubation
Description: as §1

[3] = system: Enterococcus faecium CIP 54.32; test: as above; settings: CIP54, 18 hours incubation
Description: as §1

[4] = system: Staphylococcus aureus ATCC 29213; test: as above
Description: as §1

[5] = system: Staphylococcus aureus ATCC 33592 (MRSA); test: as above; settings: 5 x 10^5 CFU/mL, 18 hours incubation
Description: as §1

[6] = system: Staphylococcus aureus ATCC 106414 (VISA); test: as above; settings: 5 x 10^5 CFU/mL, 18 hours incubation
Description: as §1

[7] = system: Staphylococcus aureus SA-1199B; test: as above; settings: SA1199B, 18 h
Description: as §1

[8] = system: Staphylococcus epidermidis CIP 81.55; test: as above; settings: CIP81, 5 x 10^5 CFU/mL, 18 hours incubation
Description: as §1

[9] = system: Staphylococcus epidermidis CIP 103627; test: as above; settings: CIP103627, 5 x 10^5 CFU/mL, 18 hours incubation
Description: as §1

[10] = system: Haemophilus influenzae ATCC 49766; test: as above; settings: ATCC49766, 10% sheep blood, 5% CO2, 18 hours incubation
Description: as §1

[11] = system: Staphylococcus aureus ATCC 6538; test: as above; settings: ATCC6538, 5 x 10^5 CFU/mL, 18 hours incubation
Description: as §1

[12] = system: Staphylococcus aureus ATCC 25923; test: as above
Description: as §1

[13] = system: Escherichia coli ATCC 25922; test: as above
Description: as §1

[14] = system: Enterococcus faecalis ATCC 29212; test: as above; settings: ATCC29212, 18 hours incubation
Description: as §1

[15] = system: Streptococcus agalactiae (group B) ATCC 12400; test: as above; settings: ATCC12400, 18 hours incubation
Description: as §1

[16] = system: Staphylococcus aureus CIP 65.25 (MRSA); test: as above; settings: 5 x 10^5 CFU/mL, 18 hours incubation
Description: as §1

[17] = system: Staphylococcus aureus ATCC 9144; test: as above; settings: ATCC9144, 5 x 10^5 CFU/mL, 18 hours incubation
Description: as §1

[18] = system: Enterobacter cloacae ATCC13047; test: as above
Description: as §1

[19] = system: Streptococcus pneumoniae ATCC 6303; test: as above; settings: ATCC6303, 10% sheep blood, 5% CO2, 18 hours incubation
Description: as §1

[20] = system: Staphylococcus aureus CIP 103428; test: as above; settings: CIP103428, 5 x 10^5 CFU/mL, 18 hours incubation
Description: as §1

[21] = system: Streptococcus mitis CIP 103335; test: as above; settings: CIP103335, 18 hours incubation
Description: as §1

[22] = system: Klebsiella pneumoniae ATCC 35657; test: as above
Description: as §1

[23] = system: Staphylococcus epidermidis ATCC 12228; test: as above
Description: as §1

[24] = system: Staphylococcus aureus CIP 65.6; test: as above; settings: CIP65, 5 x 10^5 CFU/mL, 18 hours incubation
Description: as §1

[25] = system: Streptococcus pneumoniae ATCC 49619; test: as above; settings: ATCC49619, 10% sheep blood, 5% CO2, 18 hours incubation
Description: as §1

[26] = system: Pseudomonas aeruginosa CIP 5933; test: as above
Description: as §1

[27] = system: Listeria innocua CIP 80.11; test: as above; settings: CIP80, 18 hours incubation
Description: as §1

[28] = system: Serratia marcescens CIP 103551; test: as above
Description: as §1

[29] = system: Bacillus subtilis CIP 5262; test: as above; settings: CIP5262, 18 hours incubation
Description: as §1

[30] = system: KB (human mouth carcinoma); test: In vitro cytotoxicity; settings: 10^-5 M in DMSO, triplicate, read-out: % of cellular growth inhibition
Description: (§2) In vitro cytotoxicity was assayed on three cell lines - KB (human mouth carcinoma), MCR5 (human lung fibroblast) and HCT116 (human colon tumor). Results are presented in table III as % of cellular growth inhibition in presence of 10^-5 M and 10^-6 M of the tested bis-pyrrolic derivatives in DMSO (triplicate).

[31] = system: HCT116 (human colon tumor); test: In vitro cytotoxicity; settings: HCT-116, 10^-5 M in DMSO, triplicate, read-out: % of cellular growth inhibition
Description: as §2

[32] = system: MRC5; test: In vitro cytotoxicity; settings: MRC5 (human lung fibroblast); 10^-5 M in DMSO; triplicate; read-out: % of cellular growth inhibition
Description: as §2

[33] = ATCC19606, Acinetobacter baumanii ATCC 19606, 18 hours incubation, read-out: MIC
[34] = ATCC29213, Staphylococcus aureus ATCC 29213, 5 x 10^5 CFU/mL, 18 hours incubation, read-out: MIC
[35] = ATCC25923, Staphylococcus aureus ATCC 25923, 5 x 10^5 CFU/mL, 18 hours incubation, read-out: MIC
[36] = ATCC25922, Escherichia coli ATCC 25922, 18 hours incubation, read-out: MIC
[37] = Enterobacter cloacae ATCC13047, 18 hours incubation, read-out: MIC
[38] = ATCC35657, Klebsiella pneumoniae ATCC 35657, 18 hours incubation, read-out: MIC
[39] = ATCC12228, Staphylococcus epidermidis ATCC 12228, 5 x 10^5 CFU/mL, 18 hours incubation, read-out: MIC
[40] = CIP5933, Pseudomonas aeruginosa CIP 5933, 18 hours incubation, read-out: MIC
[41] = CIP103551, Serratia marcescens CIP 103551, 18 hours incubation, read-out: MIC

Compound | MIC [1, 33] [µg/mL] | MIC [4, 34] [µg/mL] | MIC [5] [µg/mL] | MIC [6] [µg/mL] | MIC [8] [µg/mL] | MIC [9] [µg/mL] | MIC [11] [µg/mL] | MIC [12, 35] [µg/mL] | MIC [13, 36] [µg/mL] | MIC [16] [µg/mL] | MIC [17] [µg/mL] | MIC [18, 37] [µg/mL] | MIC [20] [µg/mL] | MIC [22, 38] [µg/mL] | MIC [23, 39] [µg/mL] | MIC [26, 40] [µg/mL] | MIC [28, 41] [µg/mL] | inhibition at 10 µM [30] [%] | inhibition at 10 µM [31] [%] | inhibition at 10 µM [32] [%] | further results
CC(=O)c1c(C)[nH]c(C(c2ccccc2)c2[nH]c(C)c(C(C)=O)c2C)c1C [3b] | > 128 | 4 (≈ 11 µM) | 8 (≈ 22.1 µM) | 4 (≈ 11 µM) | > 128 | > 128 | 4 (≈ 11 µM) | 4 (≈ 11 µM) | > 128 | 8 (≈ 22.1 µM) | 8 (≈ 22.1 µM) | > 128 | 4 (≈ 11 µM) | > 128 | > 128 | > 128 | > 128 | 32 | 43 |  | MIC [2]: > 128 µg/mL; MIC [3]: > 128 µg/mL; MIC [7]: 8 µg/mL (≈ 22.1 µM); MIC [10]: > 128 µg/mL; MIC [14]: > 128 µg/mL; MIC [15]: > 128 µg/mL; MIC [19]: > 128 µg/mL; MIC [21]: > 128 µg/mL; MIC [24]: 4 µg/mL (≈ 11 µM); MIC [25]: > 128 µg/mL; MIC [27]: > 128 µg/mL; MIC [29]: > 128 µg/mL
CCC(c1[nH]c(C)c(C(C)=O)c1C)c1[nH]c(C)c(C(C)=O)c1C [3a] | > 128 | 32 (≈ 102 µM) | 16 (≈ 50.9 µM) | 32 (≈ 102 µM) | > 128 | > 128 | 16 (≈ 50.9 µM) | 32 (≈ 102 µM) | > 128 | 16 (≈ 50.9 µM) | > 128 | > 128 | 32 (≈ 102 µM) | > 128 | > 128 | > 128 | > 128 | 30 | 41 |  | MIC [2]: > 128 µg/mL; MIC [3]: > 128 µg/mL; MIC [7]: 32 µg/mL (≈ 102 µM); MIC [10]: > 128 µg/mL; MIC [14]: > 128 µg/mL; MIC [15]: > 128 µg/mL; MIC [19]: > 128 µg/mL; MIC [21]: > 128 µg/mL; MIC [24]: 32 µg/mL (≈ 102 µM); MIC [25]: > 128 µg/mL; MIC [27]: > 128 µg/mL; MIC [29]: > 128 µg/mL
CC(=O)c1c(C)[nH]c(C(c2ccccc2O)c2[nH]c(C)c(C(C)=O)c2C)c1C [3m] |  |  |  |  |  |  |  |  |  |  |  |  |  |  |  |  |  | 6 ± 10 | 0 | 1 ± 17 | MIC ([1]; ATCC19606, 18 h): > 32 µg/mL; MIC ([4]; Staphylococcus aureus, ATCC29213, 18 h): 4 µg/mL (≈ 10.6 µM); MIC ([12]; Staphylococcus aureus, ATCC25923, 18 h): 8 µg/mL (≈ 21.1 µM); MIC ([13]; Escherichia coli, ATCC25922, 18 h): > 32 µg/mL; MIC ([18]; Enterobacter cloacae, ATCC13047, 18 h): > 32 µg/mL; MIC ([22]; Klebsiella pneumoniae, ATCC35657, 18 h): > 32 µg/mL; MIC ([23]; Staphylococcus epidermidis, ATCC12228, 18 h): > 128 µg/mL; MIC ([26]; Pseudomonas aeruginosa, CIP5933, 18 h): > 32 µg/mL; MIC ([28]; Serratia marcescens, CIP103551, 18 h): > 32 µg/mL
CC(=O)c1c(C)[nH]c(C(c2ccc([N+](=O)[O-])cc2)c2[nH]c(C)c(C(C)=O)c2C)c1C [3d] | > 128 | 8 (≈ 19.6 µM) | > 32 | 8 (≈ 19.6 µM) | > 128 | > 128 | > 32 | > 32 | > 128 | 8 (≈ 19.6 µM) | > 32 | > 128 | > 32 | > 128 | > 128 | > 128 | > 128 | 0 | 0 | 0 | MIC [24]: 16 µg/mL (≈ 39.3 µM)
CC(=O)c1c(C)[nH]c(C(c2cccs2)c2[nH]c(C)c(C(C)=O)c2C)c1C [3l] | > 32 | 8 (≈ 21.7 µM) |  |  |  |  |  | 4 (≈ 10.9 µM) | > 32 |  |  | > 32 |  | > 32 | > 128 | > 32 | > 32 | 9 ± 5 | 11 ± 7 | 6 ± 3 | 
CC(=O)c1c(C)[nH]c(C(c2ccccc2I)c2[nH]c(C)c(C(C)=O)c2C)c1C [3k] | > 32 | 4 (≈ 8.19 µM) |  |  |  |  |  | 8 (≈ 16.4 µM) | > 32 |  |  | > 32 |  | > 32 | > 128 | > 32 | > 32 | 20 ± 8 | 0 | 3 ± 5 | 
